“Also recorded” adds a separate entry of the source. Values belong to the compound of their own block, whether it stands above or below them.
Legend:
Assay type in all cases: cell-based
rat TRPV1 [1] = target: T1, rat TRPV1 (Rattus norvegicus, UniProt O35433); assay: TRPV1-mediated calcium influx (Fluo-4) in HEK cells inducibly expressing TRPV1; conditions: for calcium influx in response to individual terpene / calcium flux in response to individual cannabinoid: HEK+TRPV1 cells; for calcium influx in response to individual terpene: each terpene applied alone; for calcium flux in response to individual cannabinoid: each cannabinoid applied alone
T1 construct: FLAG; expressed in transfected cells; host or cells: TRex HEK293 (pcDNA6TR), rat TRPV1 cDNA in pcDNA4TO, tetracycline-induced
Method: The HEK293 cell line was stably transfected with the pcDNA6TR (Invitrogen, CA) plasmid (encoding the tetracycline-sensitive TREx repressor protein), and was maintained in DMEM+10% fetal bovine serum (inactivated at 55° C. for 1 h)+2 mM glutamine in humidified 5% CO2 atmosphere at 37° C. Selection pressure on the TRex 293 cells was maintained by continuous culture in 10 μg/ml Blasticidin (Sigma, St Louis, Mo.).
For production of TRex HEK293 cells with inducible expression of TRPV1, parental cells were electroporated with the rat TRPV1 cDNA in the pcDNA4TO vector and clonal cell lines were selected by limiting dilution in the presence of 400 μg/ml zeocin (Invitrogen, CA). TRPV1 expression was induced using 1 μg/ml tetracycline for 16 h at 37° C.
(§1) Calcium responses mediated by TRPV1 were tested by calcium assay in the cell culture system. Cells were washed and incubated with 0.2 μM fluo-4 acetoxymethyl ester (“Fluo-4”) for 30 minutes at 37° C. in a standard modified Ringer's solution of the following composition (in mM): NaCl 145, KCl 2.8, CsCl 10, CaCl2 10, MgCl2 2, glucose 10, Hepes.NaOH 10, pH 7.4, 330 mOsm. Cells were transferred to 96-well plates at 50,000 cells/well and stimulated as indicated. Calcium signals were acquired using a Flexstation 3 (Molecular Devices, Sunnydale, USA). Data was analyzed using SoftMax® Pro 5 (Molecular Devices). Where indicated, nominally calcium-free external conditions were achieved by the preparation of 0 mM CaCl2 Ringer solution containing 1 mM EGTA. Where indicated, capsaicin (10 μM) and ionomycin (500 nM) were used as positive controls to induce calcium responses. Capsazepine (10 μM) was used where indicated to specifically antagonize TRPV1-mediated calcium responses. Where indicated, baseline traces (no stimulation, NS) were subtracted. Where indicated, vehicle alone traces were subtracted. Where indicated, vehicle comprising various diluents matched to corresponding mixtures was used as a negative control.

HEK wild type cells = assay: Calcium flux (Fluo-4) in wild-type HEK cells without the TRPV1 construct; conditions: for calcium response to individual cannabinoid: cells without TRPV1
Method: as §1
When wild-type HEK cells without the TRPV1 construct were presented with the same stimulus conditions, calcium fluxes were not observed (FIGS. 5A-5C).

TRPV1 = TRPV1 (Rattus norvegicus, UniProt O35433); assay: TRPV1 desensitization over multiple sequential ligand applications (FIG. 13); conditions: Area Under the Curve analysis, calcium assays or electrophysiology
rat TRPV1 [2] = target: T1, rat TRPV1; assay: Whole-cell patch clamp in single HEK293 cells overexpressing rat TRPV1; conditions: for outward current: 5 μM myrcene or 1 μM capsaicin; for inward current: average of 6 independent experiments
Method: HEK293 cells were kept in sodium-based extracellular Ringer's solution containing 140 mM NaCl, 1 mM CaCl2, 2 mM MgCl2, 2.8 mM KCl, 11 mM glucose, and 10 mM HEPES-NaOH, pH 7.2 and osmolarity 300 mOsmol. The cells' cytosol was perfused with intracellular patch pipette solution containing 140 mM Cs-glutamate, 8 mM NaCl, 1 mM MgCl2, 3 mM MgATP, and 10 mM HEPES-CsOH. The standard internal Ca^2+ concentration was buffered to 180 nM with 4 mM Ca and 10 mM BAPTA. The level of free unbuffered Ca was adjusted using the calculator provided with WebMaxC (http://www.stanford.edu/˜cpatton/webmaxcS.htm). The pH of the final solution was adjusted to pH 7.2 and osmolarity measured at 300 mOsmol.
1 μM capsaicin was used as a positive control for TRPV1 activation. Rapid extracellular solution application and exchange was performed with the SmartSquirt delivery system (Auto-Mate Scientific, San Francisco). The system includes a ValveLink TTL interface between the electronic valves and the EPC-9 amplifier (HEKA, Lambrecht, Germany). This configuration allows for programmable solution changes via the PatchMaster software (HEKA, Lambrecht, Germany).
Patch-clamp experiments were performed in the whole-cell configuration at 21-25° C. Patch pipettes had resistances of 2-3 MΩ. Data was acquired with PatchMaster software controlling an EPC-9 amplifier. Voltage ramps of 50 ms spanning the voltage range from −100 to 100 mV were delivered from a holding potential of 0 mV at a rate of 0.5 Hz over a period of […]. Voltages were corrected for a liquid junction potential of 10 mV. Currents were filtered at 2.9 kHz and digitized at 100 us intervals. Capacitive currents were determined and corrected before each voltage ramp. The development of currents for a given potential was extracted from individual ramp current records by measuring the current amplitudes at voltages of −80 mV and +80 mV. Data were analyzed with FitMaster (HEKA, Lambrecht, Germany), and IgorPro (WaveMetrics, Lake Oswego, Oreg., USA). Where applicable, statistical errors of averaged data are given as mean±s.e.m.

T1 sequence (O35433 whole entry): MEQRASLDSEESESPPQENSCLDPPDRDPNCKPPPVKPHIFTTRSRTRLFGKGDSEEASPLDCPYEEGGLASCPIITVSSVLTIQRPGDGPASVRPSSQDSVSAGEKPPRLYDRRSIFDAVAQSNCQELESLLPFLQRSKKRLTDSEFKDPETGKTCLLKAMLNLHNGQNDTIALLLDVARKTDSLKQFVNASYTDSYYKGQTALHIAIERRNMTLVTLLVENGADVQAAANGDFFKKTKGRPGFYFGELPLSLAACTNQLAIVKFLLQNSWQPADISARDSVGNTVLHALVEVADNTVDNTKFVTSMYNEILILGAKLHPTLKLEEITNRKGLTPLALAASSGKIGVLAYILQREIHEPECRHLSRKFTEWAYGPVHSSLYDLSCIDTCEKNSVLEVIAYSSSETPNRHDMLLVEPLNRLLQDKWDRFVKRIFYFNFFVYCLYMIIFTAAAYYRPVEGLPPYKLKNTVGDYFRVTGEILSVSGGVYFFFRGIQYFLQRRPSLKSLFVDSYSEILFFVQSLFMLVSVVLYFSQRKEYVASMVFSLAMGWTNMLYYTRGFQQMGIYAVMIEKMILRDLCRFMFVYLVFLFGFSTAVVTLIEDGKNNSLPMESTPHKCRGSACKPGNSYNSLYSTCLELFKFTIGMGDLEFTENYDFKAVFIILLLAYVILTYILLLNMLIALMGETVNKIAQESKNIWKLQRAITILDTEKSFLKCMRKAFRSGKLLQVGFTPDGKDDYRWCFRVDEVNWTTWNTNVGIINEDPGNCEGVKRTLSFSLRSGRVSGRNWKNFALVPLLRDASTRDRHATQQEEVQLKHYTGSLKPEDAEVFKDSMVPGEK
TRPV1, sequence (O35433 whole entry): as above

Compound: C=CC(=C)CCC=C(C)C [Myrcene, 7-methyl-3-methylideneocta-1,6-diene]
- calcium-mediated fluorescence, calcium-free medium, high concentration (rat TRPV1 [1]; 0 mM external calcium + 1 mM EGTA, 3.5 μg/ml): induced such increase
- calcium-mediated fluorescence, calcium-free medium, low concentrations (rat TRPV1 [1]; 0 mM external calcium + 1 mM EGTA, 0.43, 0.875 and 1.75 μg/ml): did not cause increase
- calcium response to different concentrations of myrcene (rat TRPV1 [1]; 3.5, 1.75, 0.875 and 0.43 μg/ml): dose-dependent
- calcium influx in response to individual terpene (rat TRPV1 [1]): significant agonist activity
- calcium influx in response to individual terpene (rat TRPV1 [1]; listed as myrcene): significant calcium flux was detected; also recorded: did not account for 100% of the calcium influx signal
- calcium influx, calcium-free medium (HEK wild type cells; wild-type HEK cells without TRPV1, myrcene 0.43-3.5 μg/ml): not observed or were only minimal
- calcium flux in response to myrcene (HEK wild type cells; wild-type HEK cells, 3.5-0.43 μg/ml, compared with HEK+TRPV1): much smaller
- desensitization of the channel (TRPV1): cause desensitization
- outward current (rat TRPV1 [2]): lower amplitude than the inward current
- TRPV1 channel state on activation (IV relationship) (rat TRPV1 [2]; 5 μM myrcene, 1 μM capsaicin): primarily in State 1
- inward current (rat TRPV1 [2]; 5 μM myrcene, 1 mM Ca): approximately 0.5 nA
- current induced (rat TRPV1 [2]; 5 μM, 10 μM and 150 μM myrcene): 0.5-2.2 nA
- dose response of current in individual cells (rat TRPV1 [2]; 5, 10, 150 μM): dose-dependent response
- response to second stimulus Cannabidiol after prior Myrcene saturation (rat TRPV1 [2]; Myrcene at 0 mM external Ca2+, then Cannabidiol at 1 mM external Ca2+, versus no prior Myrcene): suppressed
- activator strength at TRPV1 (rat TRPV1 [2]; producing nA currents): strong activator of TRPV1

Compound: C=C(C)[C@@H]1CCC(C)=C[C@H]1c1c(O)cc(CCCCC)cc1O [Cannabidiol]
- calcium flux in response to individual cannabinoid (rat TRPV1 [1]): most potent; also recorded: calcium flux was detected
- calcium response to individual cannabinoid (HEK wild type cells): only minimal or absent
- desensitization of the channel (TRPV1): cause desensitization
- Imax of activated current (rat TRPV1 [2]; 30 μM CBD): up to 5 nA
- Erev of rectifying current (rat TRPV1 [2]; CBD): ~0 mV
- sensitivity of CBD-induced current (rat TRPV1 [2]; capsazepine application, washout of CBD): sensitive to both capsazepine and washout

- calcium influx in response to individual terpene (rat TRPV1 [1]): not observed
Compound: C=CC(C)(O)CCC=C(C)C (stereo not drawn) [Linalool, 3,7-dimethyl-1,6-octadien-3-ol]

Compound: CCCCCc1cc(O)c2c(c1)OC(C)(CCC=C(C)C)C=C2 (stereo not drawn) [cannabichromene, Cannabichromene]
- calcium flux in response to individual cannabinoid (rat TRPV1 [1]): most potent; also recorded: calcium flux was detected
- calcium response to individual cannabinoid (HEK wild type cells): only minimal or absent

- calcium influx in response to individual terpene (rat TRPV1 [1]; listed as nerolidol): significant calcium flux was detected
Compound: C=CC(C)(O)CCC=C(C)CCC=C(C)C (stereo not drawn) [Nerolidol, 3,7,11-Trimethyl-1,6,10-dodecatrien-3-ol]
- calcium influx in response to individual terpene (rat TRPV1 [1]): more modest agonist activity; also recorded: activated TRPV1-mediated Ca^2+ influx

Compound: C=C(C)[C@@H]1CCC(C)=C[C@H]1c1c(O)cc(CCC)cc1O [cannabidivarin, Cannabidivarin]
- calcium flux in response to individual cannabinoid (rat TRPV1 [1]): most potent; also recorded: calcium flux was detected
- calcium response to individual cannabinoid (HEK wild type cells): only minimal or absent

- capsaicin-specific calcium flux (rat TRPV1 [1]; TRPV1-induced HEK cells): capsaicin-specific calcium fluxes
- current induced (rat TRPV1 [2]; 1 μM capsaicin): 4-10 nA
- inward current (rat TRPV1 [2]; 1 μM capsaicin after myrcene): approximately 9 nA
- outward current (rat TRPV1 [2]): lower amplitude than the inward current
- TRPV1 channel state on activation (IV relationship) (rat TRPV1 [2]; 5 μM myrcene, 1 μM capsaicin): dilated state
Compound: COc1cc(CNC(=O)CCCC/C=C/C(C)C)ccc1O [capsaicin, reference compound]
- capsaicin calcium flux (HEK wild type cells; HEK wild type cells without a construct encoding TRPV1): not detected
- desensitization of the channel (TRPV1): can cause desensitization

Compound: C=C(C)[C@@H]1CCC(C)=C[C@H]1c1c(O)cc(CCCCC)c(C(=O)O)c1O [cannabidiolic acid, Cannabidiolic Acid]
- calcium flux in response to individual cannabinoid (rat TRPV1 [1]): most potent; also recorded: calcium flux was detected
- calcium response to individual cannabinoid (HEK wild type cells): only minimal or absent

Compound: C=C/C(C)=C/CC=C(C)C [Ocimene]
- calcium influx in response to individual terpene (rat TRPV1 [1]): not observed

Compound: CCCCCc1cc(O)c(C/C=C(\C)CCC=C(C)C)c(O)c1C(=O)O [cannabigerolic acid, Cannabigerolic Acid]
- calcium flux in response to individual cannabinoid (rat TRPV1 [1]): most potent; also recorded: calcium flux was detected
- calcium response to individual cannabinoid (HEK wild type cells): only minimal or absent

- myrcene-induced calcium flux in response to TRPV1 inhibitor (rat TRPV1 [1]; cells activated with 3.5 μg/ml myrcene, 10 μM capsazepine): diminished
Compound: Oc1cc2c(cc1O)CN(C(=S)NCCc1ccc(Cl)cc1)CCC2 [capsazepine, reference compound]

- calcium influx in response to individual terpene (rat TRPV1 [1]): not observed
Compound: CC(C)=CCC[C@](C)(O)[C@@H]1CC=C(C)CC1 [Bisabolol, 6-methyl-2-(4-methylcyclohex-3-en-1-yl)hept-5-en-2-ol]

Reference: patent US20200405657A1, “TREATMENT OF PAIN USING ALLOSTERIC MODULATOR OF TRPV1” (priority 2019, published 2020)
